Key:
STZ-administered rat [1] = test: Test 1: maximum quantity excreted by single urination, metabolic cage, 24 hours; assay type: in vivo; conditions: STZ 65 mg/kg i.p. rat; Compound 4 i.p. 8 mg/kg daily for 8 weeks; mean ± S.E.; p < 0.05 relative to STZ-administered group
Method: Test 1 (Maximum Quantity Excreted by Single Urination)
To a rat, 65 mg/kg of streptozotocin (STZ) was administered intraperitoneally. After intraperitoneal administration of Compound 4, which had been obtained in Preparation Example 4, at a daily dose of 8 mg/kg for 8 weeks from two days after administration of STZ, urination pattern such as urination frequency and urination amount was recorded for 24 hours at 2.5-min intervals by using a metabolic cage.

STZ-administered rat [2] = test: Test 2: bladder capacity and urination efficiency from intravesical pressure under anesthesia; assay type: in vivo; conditions: Compound 4 i.p. 8 mg/kg daily for 8 weeks, mean ± S.E., p < 0.05 relative to STZ-administered group
Method: Test 2 (Bladder Capacity and Urination Efficiency)
In a similar manner to Test 1, Compound 4 obtained in Preparation Example 4 was administered intraperitoneally to a rat at a daily dose of 8 mg/kg for 8 weeks two days after administration of STZ. The intravesical pressure was measured under anesthesia. From the results, the bladder capacity and urination efficiency were determined.
Urination efficiency (%)=100×excreted amount/bladder capacity

bladder smooth muscle = test: Test 3: contractive force of extracted bladder smooth muscle after ischemia-reperfusion of abdominal aorta; assay type: in vivo, rat; conditions: for Contractive force (contraction by carbachol) / Contractive force (contraction by concentrated potassium chloride): 30 minutes ischemia, 30 minutes reperfusion; for Contractive force (contraction by concentrated potassium chloride): potassium chloride 100 mM
Method: Test 3 ([…]) Compound 4 obtained in Preparation Example 4 was administered intraperitoneally to a rat immediately before the ischemia at a dose of 0.5, 2.0 and 8.0 mg/kg, and the rat was anesthetized by use of pentobarbital. Following 30 minutes ischemia of abdominal aorta of the rats, the abdominal aorta was subjected to perfusion for 30 minutes. Each bladder was then extracted and fixed in organbath filled with Krebs-Henseleit nutritive solution. By the use of TB-612T transducer (product of Nihonkoden), contractive force of bladder smooth muscle due to carbachol or concentrated potassium chloride (100 mM) was measured.

[3] = 0.5 mg/kg i.p. immediately before ischemia
[4] = 2.0 mg/kg i.p. immediately before ischemia
[5] = 8.0 mg/kg i.p. immediately before ischemia

CC1=C(CCCCCCCCCCCCCCCO)C(C)(C)CCC1=O [Compound 4, 3-(15-Hydroxypentadecyl)-2,4,4-trimethyl-2-cyclohexen-1-one]
Maximum amount excreted by single urination (STZ-administered rat [1]): 3.71 ± 0.26 mL
Urination efficiency (STZ-administered rat [2]; 100×excreted amount/bladder capacity): 75.0±6.1%
Bladder capacity (STZ-administered rat [2]; urination-inducing bladder capacity): 0.54 ± 0.07 mL
Contractive force (contraction by carbachol) (bladder smooth muscle; [3]): 4.5 ± 0.5 g/mm^2
Contractive force (contraction by concentrated potassium chloride) (bladder smooth muscle; [3]): 3.0 ± 0.4 g/mm^2
Contractive force (contraction by carbachol) (bladder smooth muscle; [4]): 5.4 ± 0.4 g/mm^2
Contractive force (contraction by concentrated potassium chloride) (bladder smooth muscle; [4]): 3.9 ± 0.3 g/mm^2
Contractive force (contraction by carbachol) (bladder smooth muscle; [5]): 6.5 ± 0.5 g/mm^2
Contractive force (contraction by concentrated potassium chloride) (bladder smooth muscle; [5]): 3.9 ± 0.4 g/mm^2
Effect on contraction of bladder smooth muscle (in words) (bladder smooth muscle; 0.5, 2.0 and 8.0 mg/kg i.p., summary of Tables 3 and 4): enhances contraction of bladder smooth muscle depending on its dose

Reference: patent publication US6906107B2, “Use of cyclohexenone derivatives for the manufacture of a medicament in the treatment of dysuria” (Meiji Dairies Corporation, priority 2001, dated 2005)
